Reference: patent publication US20180071317A1, “USE OF AGENTS THAT ALTER THE PERITUMORAL ENVIRONMENT FOR THE TREATMENT OF CANCER” (SERVICIO ANDALUZ DE SALUD, priority 2011, published 2018)

How the values were obtained:
polymorphonuclear cells = test: Marker expression (immunohistochemistry) in polymorphonuclear blood cells with SP alone or with NK1 antagonists; assay type: cell-based, human; settings: SP 1 μM + antagonist 1 μM; 48 h
From the text: Briefly, heparinized blood from healthy donors was centrifuged so as to separate the various components thereof. Red blood cells remained at the bottom of the tube. Above them was a small white layer composed of the white blood cells and above, on top of the tube, the blood plasma. The layer of white cells was distributed in a culture plate of 24 wells by adding in each the same concentration of blood plasma from the same donor, supplemented with 1% antibiotic-antimycotic (Invitrogen). In each well, approximately 1000 cells (PHF) skin from the dermis were further added, obtained as previously described in Example 2. […] After 48 hours of incubation, cells were collected and embedded in paraffin for expression analysis by immunohistochemical techniques (as described in Example 1).
The expression of TGF molecular markers (anti-TGF 2, SAB4502956) and NF-kB (anti-NF-kB, SAB4501992) using specific antibodies against them were analyzed. All antibodies used were rabbit polyclonal antibodies obtained from Sigma Aldrich and were used at a concentration of 1/1000. All experiments were carried out sixfold.

[1] = tested on: leukocyte cells (mono and polymorphonuclear) in co-culture with cells isolated from primary human tumors; test: Marker expression (IHC) in leukocytes co-cultured with primary human tumor cells (colon, pancreatic, lung carcinoma, glioma, melanoma); assay type: cell-based; settings: SP 1 μM + antagonist 1 μM;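 further: tumor cells and leukocytes came from the same patients, co-culture contents were paraffin-embedded for immunohistochemistry with antibodies to TGF-β2 or NF-kB, leukocytes cultured alone served as control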
Experimental: To check that the interaction of the human primary tumor cells with cells of the immune/inflammatory (mono and polymorphonuclear leukocytes) cells, stimulates the secretion of substances of importance for survival and tumor progression, cultures were carried out using sets of immune cells/inflammatory (mono and polymorphonuclear leukocytes) with tumor cells obtained directly from primary human tumors of the same patients.
The same method described in Example 7 and 9 was used to obtain tumor cells from primary human tumors. Similarly cultured immune cells/inflammatory (mono and polymorphonuclear leukocytes) were used as control and secondly, cultured tumor cells isolated from patients in the presence of immune cells/inflammatory (mono and polymorphonuclear leukocytes).
Then, paraffin blocks were prepared with the contents of each of the groups mentioned previously for expression studies using immunohistochemistry. On this occasion, in order to identify the secretion of substances with importance for the survival and progression of tumor the following markers were analyzed: TGF-β2 (SAB4502956) and NF-kB (SAB4501992) using specific antibodies against them. All antibodies used were rabbit polyclonal antibodies obtained from Sigma Aldrich and were used at a concentration of 1/1000. Immunohistochemical techniques were performed and evaluated as described in previous examples.

[2] = tested on: tumors from the tumor cell lines of Table 9; test: Mean tumor volume in nude mice injected subcutaneously with human tumor cells; settings: 30 mg/kg/day oral, 7 days
[3] = tested on: fibroblasts of tumors produced by tumor cell line of human melanoma (MEL HO); test: Marker expression (IHC) in fibroblasts of tumor or peritumoral area, mouse model, MEL HO; assay type: in vivo; settings: MEL HO tumors in mice, 30 mg/kg/day oral, 7 days
Experimental: (§1) In vitro tests conducted in Example 5 are now carried out in an experimental model in mice in vivo. […] Subsequently, the expression in fibroblasts tumoral and peritumoral area of molecular markers associated with progression and maintenance of tumors: TGF-α, TGF-β1, TGF-β2, TGF-β3, MMP-7, MMP-11, MMP-14 were analyzed by immunohistochemistry.
(§2) Were injected with 2×10^7 cells tumors (corresponding, in each case to each of the tumor types as specified in Table 9) in 200 of PBS subcutaneously μl. […] Mice were randomized into two groups when the tumors reached a volume of 75 mm^3 One group was treated with non-peptide receptor antagonists NK1 and the other with placebo 200μ1. […] Tumors and samples of non-neoplastic stromal areas remote from the tumor were halved, formalin fixed (4%) and then were included in paraffin blocks for analysis by immunohistochemistry.
(§3) The expression on fibroblast cells obtained in the animal model was analyzed by immunohistochemistry, of the above markers: TGF-α, TGF-β1, TGF-β2, TGF-β3, MMP-7, MMP-1 1, MMP-14MP-14. Tables 32 to 35 depict the type of label used and the average percentage of fibroblasts present in non-tumor areas, tumor and peritumoral (±SD) which were expressing the marker shown in each of the tumor types developed from of the different cell lines used. This process was realized in mice treated with non-peptide antagonists of NK1 receptor and in untreated animals (control).

[4] = tested on: fibroblasts (PHF) co-cultured with human melanoma tumor cells (MEL-HO1); test: Marker expression (IHC) in PHF co-cultured with MEL-HO1 tumor cells; assay type: cell-based; settings: PHF co-cultured with MEL-HO1 + SP + NK1 antagonist;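 further: values are the percentage of fibroblasts positive for each marker, with cultures grown in fresh healthy-donor blood plasma and each experiment run six times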
Experimental: (§4) All cultures were maintained 48 hours, following which the same cells were included in paraffin blocks for subsequent analysis of the expression of different markers by immunohistochemistry (see Example 1). […] All experiments were carried out sixfold. Analyzed markers in fibroblast cells (stromal cells) were: TGF-α, TGF-β1, TGF-β2, TGF-β3, SPARC, MMP-3, MMP-7, MMP-9, MMP-11, MMP-13 and MMP-14.

[5] = tested on: fibroblasts of tumors produced by human rhabdomyosarcoma tumor line (A-204); test: Marker expression (IHC) in fibroblasts of tumor or peritumoral area, mouse model, A-204; assay type: in vivo; settings: A-204 tumors in mice, 30 mg/kg/day oral, 7 days
Experimental: as §1, §2, §3

[6] = tested on: fibroblasts (PHF) co-cultivated with tumor cell carcinoma of urinary bladder (5637); test: Marker expression (IHC) in PHF co-cultured with 5637 tumor cells; assay type: cell-based, human; settings: co-culture with 5637; SP 1 μM + antagonist 1 μM; 48 h
Experimental: as §4

[7] = tested on: fibroblasts (PHF) co-cultured with human choriocarcinoma tumor cells (AC-1M32); test: Marker expression (IHC) in PHF co-cultured with AC-1M32 tumor cells; assay type: cell-based; settings: co-culture with AC-1M32; SP 1 μM + antagonist 1 μM; 48 h;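 further: Read-out is the percentage of PHF fibroblasts positive for each marker, with cells grown in fresh healthy-donor blood plasma, six replicates, reference being fibroblasts cultured alone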
Experimental: as §4

[8] = co-culture with cells isolated from colon carcinoma
[9] = co-culture with cells isolated from glioma
[10] = co-culture with cells isolated from lung carcinoma
[11] = co-culture with cells isolated from melanoma
[12] = co-culture with cells isolated from pancreatic carcinoma

CC(=O)N1CCN([C@H]2CCN(C(=O)N(C)[C@H](C)c3cc(C(F)(F)F)cc(C(F)(F)F)c3)[C@@H](c3ccc(F)cc3C)C2)CC1 [Casopitant]
polymorphonuclear cells expressing NF-kB (polymorphonuclear cells): 0% | polymorphonuclear cells expressing TGF-β (polymorphonuclear cells): 0% | Percentage of mononuclear leukocytes cells which expressed NF-kB [1, 8]: 0% | Percentage of mononuclear leukocytes cells which expressed TGF-β [1, 8]: 0% | Percentage of polymorphonuclear leukocytes cells which expressed NF-kB [1, 8]: 0% | Percentage of polymorphonuclear leukocytes cells which expressed TGF-β [1, 8]: 0% | Percentage of mononuclear leukocytes cells expressing NF-kB [1, 9]: 0% | Percentage of mononuclear leukocytes cells expressing TGF-β [1, 9]: 0% | Percentage of polymorphonuclear leukocytes cells expressing NF-kB [1, 9]: 0% | Percentage of polymorphonuclear leukocytes cells expressing TGF-β [1, 9]: 0% | Percentage of mononuclear leukocytes cells which expressed NF-kB [1, 10]: 0% | Percentage of mononuclear leukocytes cells which expressed TGF-β [1, 10]: 0% | Percentage of polymorphonuclear leukocytes cells which expressed NF-kB [1, 10]: 0% | Percentage of polymorphonuclear leukocytes cells which expressed TGF-β [1, 10]: 0% | Percentage of mononuclear leukocytes cells which expressed NF-kB [1, 11]: 0% | Percentage of mononuclear leukocytes cells which expressed TGF-β [1, 11]: 0% | Percentage of polymorphonuclear leukocytes cells which expressed NF-kB [1, 11]: 0% | Percentage of polymorphonuclear leukocytes cells which expressed TGF-β [1, 11]: 0% | Percentage of mononuclear leukocytes cells which expressed NF-kB [1, 12]: 0% | Percentage of mononuclear leukocytes cells which expressed TGF-β [1, 12]: 0% | Percentage of polymorphonuclear leukocytes cells which expressed NF-kB [1, 12]: 0% | Percentage of polymorphonuclear leukocytes cells which expressed TGF-β [1, 12]: 0% | Mean tumor volume ([2]; B lymphoblastic leukemia (peripheral human B lymphoblastoid cells) SD1): 109 ± 8 | Mean tumor volume ([2]; Carcinoma of human non-small cell lung COR-L23): 119 ± 5 | Mean tumor volume ([2]; Carcinoma of human non-small cell lung H-1963): 97 ± 3 | Mean tumor volume ([2]; Carcinoma of human non-small cell lung HCC-44): 101 ± 8 | Mean tumor volume ([2]; Carcinoma of human small cell lung H-209): 114 ± 7 | Mean tumor volume ([2]; Carcinoma of human urinary bladder 5637): 100 ± 2 | Mean tumor volume ([2]; Human B lymphoma BC-1): 83 ± 11 | Mean tumor volume ([2]; Human Burkitt lymphoma CA-46): 94 ± 9 | Mean tumor volume ([2]; Human Fibrosarcoma HT-1080): 89 ± 4 | Mean tumor volume ([2]; Human Hodgkin lymphoma KM-H2): 86 ± 7 | Mean tumor volume ([2]; Human Rhabdomyosarcoma A-204): 98 ± 5 | Mean tumor volume ([2]; Human T-cell leukemia/NK YT): 102 ± 7 | Mean tumor volume ([2]; Human T-lymphoma DERL human Hodgkin 7Linfoma KM-H2): 97 ± 6 | Mean tumor volume ([2]; Human breast adenocarcinoma humano MCF-7): 86 ± 8 | Mean tumor volume ([2]; Human breast carcinoma MDA-MB-468): 77 ± 9 | Mean tumor volume ([2]; Human breast carcinoma MT-3): 87 ± 12 | Mean tumor volume ([2]; Human choriocarcinoma AC-1M32): 84 ± 1 | Mean tumor volume ([2]; Human colon carcinoma SW-403): 78 ± 7 | Mean tumor volume ([2]; Human endometrial carcinoma AN3-CA): 82 ± 3 | Mean tumor volume ([2]; Human endometrial stromal sarcoma ESS-1): 101 ± 5 | Mean tumor volume ([2]; Human folicular thyroid carcinoma TT2609-C02): 112 ± 5 | Mean tumor volume ([2]; Human gastric adenocarcinoma 23132/87): 83 ± 4 | Mean tumor volume ([2]; Human glioma GAMG): 102 ± 4 | Mean tumor volume ([2]; Human lung carcinoma A-427): 102 ± 8 | Mean tumor volume ([2]; Human lung carcinoma DV-90): 99 ± 5 | Mean tumor volume ([2]; Human lymphoblastic leukemia T BE-13): 101 ± 4 | Mean tumor volume ([2]; Human malignant fibrous histiocytoma U-2197): 107 ± 2 | Mean tumor volume ([2]; Human melanoma MEL HO): 102 ± 9 | Mean tumor volume ([2]; Human multiple myeloma COLO-677): 104 ± 6 | Mean tumor volume ([2]; Human neuroblastoma KELLY): 112 ± 5 | Mean tumor volume ([2]; Human neuroblastoma bone marrow SKN-BE 2): 103 ± 4 | Mean tumor volume ([2]; Human osteosarcoma CAL-72): 106 ± 7 | Mean tumor volume ([2]; Human ovarian adenocarcinoma EFO-27): 88 ± 6 | Mean tumor volume ([2]; Human ovarian carcinoma COLO-704): 97 ± 6 | Mean tumor volume ([2]; Human pancretic adenocarcinoma CAPAN-1): 73 ± 8 | Mean tumor volume ([2]; Human pancretic adenocarcinoma PA-TU 8902): 75 ± 6 | Mean tumor volume ([2]; Human papillary thyroid carcinoma metastasizing B-CPAP): 106 ± 4 | Mean tumor volume ([2]; Human prostate carcinoma 22RV1): 98 ± 4 | Mean tumor volume ([2]; Human retinoblastoma WERI-Rb-1): 101 ± 5 | Mean tumor volume ([2]; Human thyroid carcinoma 8505C): 99 ± 9 | Mean tumor volume ([2]; Human uterine cervix carcinoma KB): 112 ± 1 | Mean tumor volume ([2]; Melanoma humano, metástasis en ganglio linfático COLO 858): 99 ± 5 | Mean tumor volume ([2]; Sarcoma human Edwing MHH-ES-1): 97 ± 9 | Mean tumor volume ([2]; Transitional Carcinoma of human urinary bladder RT-4): 101 ± 3 | fibroblasts expressing MMP-7 [3]: 0% | fibroblasts expressing MMP-11 [3]: 0% | fibroblasts expressing MMP-14 [3]: 0% | fibroblasts expressing TGF-α [3]: 0% | fibroblasts expressing TGF-β 1 [3]: 0% | fibroblasts expressing TGF-β 2 [3]: 0% | fibroblasts expressing TGF-β 3 [3]: 0% | cells expressing MMP-3 [4]: 0% | cells expressing MMP-7 [4]: 0% | cells expressing MMP-9 [4]: 0% | cells expressing MMP-11 [4]: 0% | cells expressing MMP-13 [4]: 0% | cells expressing MMP-14 [4]: 0% | cells expressing SPARC [4]: 0% | cells expressing TGF-α [4]: 0% | cells expressing TGF-β1 [4]: 0% | cells expressing TGF-β2 [4]: 0% | cells expressing TGF-β3 [4]: 0% | fibroblasts expressing MMP-7 [5]: 0% | fibroblasts expressing MMP-11 [5]: 0% | fibroblasts expressing MMP-14 [5]: 0% | fibroblasts expressing TGF-α [5]: 0% | fibroblasts expressing TGF-β 1 [5]: 0% | fibroblasts expressing TGF-β 2 [5]: 0% | fibroblasts expressing TGF-β 3 [5]: 0% | PHF cells expressing MMP-3 [6]: 0% | PHF cells expressing MMP-7 [6]: 0% | PHF cells expressing MMP-9 [6]: 0% | PHF cells expressing MMP-11 [6]: 0% | PHF cells expressing MMP-13 [6]: 0% | PHF cells expressing MMP-14 [6]: 0% | PHF cells expressing SPARC [6]: 0% | PHF cells expressing TGF-α [6]: 0% | PHF cells expressing TGF-β1 [6]: 0% | PHF cells expressing TGF-β2 [6]: 0% | PHF cells expressing TGF-β3 [6]: 0% | PHF cells expressing MMP-3 [7]: 0% | PHF cells expressing MMP-7 [7]: 0% | PHF cells expressing MMP-9 [7]: 0% | PHF cells expressing MMP-11 [7]: 0% | PHF cells expressing MMP-13 [7]: 0% | PHF cells expressing MMP-14 [7]: 0% | PHF cells expressing SPARC [7]: 0% | PHF cells expressing TGF-α [7]: 0% | PHF cells expressing TGF-β1 [7]: 0% | PHF cells expressing TGF-β2 [7]: 0% | PHF cells expressing TGF-β3 [7]: 0%
